This note sets out measurements from ChEMBL document CHEMBL5046276 (J Med Chem, 2022).

pIC50: −log10 of the molar value. Where only a bound is given, the exact number is not on record here.

Series [1] in a line: Selectivity index, ratio of IC50 for cytotoxicity against human HepG2 cells to IC50 for antimalarial activity against asexual blood stage wild-type Plasmodium falciparum 3D7. Format: toxicity, cell-based. Particulars: read-out: Ratio IC50.
For series [2], the system named is Plasmodium falciparum. Put plainly: Antimalarial activity against asexual blood stage wild-type Plasmodium falciparum 3D7 assessed as parasite growth inhibition incubated for 72 hrs by SYBR Green I staining based fluorescence analysis. Format: functional, organism-based. Particulars: 3D7, 72 h.
Series [3] deals with Plasmodium falciparum. Kind of series: Antimalarial activity against asexual blood stage chloroquine-resistant Plasmodium falciparum Dd2 assessed as parasite growth inhibition incubated for 72 hrs by SYBR Green I staining based fluorescence analysis. To be noted: Dd2, 72 h. Format: functional, organism-based.
Series [4] in a line: Cytotoxicity against human HepG2 cells incubated for 72 hrs by CCK-8 assay.
A short description of series [5]: Cytotoxicity against HEK293T cells incubated for 72 hrs by CCK-8 assay. To be noted: human.
Series [6] is described as follows: Selectivity index, ratio of IC50 for cytotoxicity against HEK293T cells to IC50 for antimalarial activity against asexual blood stage wild-type Plasmodium falciparum 3D7. Format: toxicity, cell-based. To be noted: human, read-out: Ratio IC50.

Regarding `Cn1nc(CN2CC3(CCN(c4ncc(C(=O)NO)cn4)C3)C2)c2ccccc21`, the selectivity ratio in series [1] amounted to 218; in series [6], 767. Further, the pIC50 (usually −log10 of the IC50, conventionally taken in molar units) in series [2] is 8.01; in series [3], 7.90. Further, the IC50 (in general, the concentration that inhibits the measured activity by half) at 72 h stood at 2.13 µM in series [4] and 7.31 µM in series [5].

Regarding `O=C(NO)c1cnc(N2CCC3(CN(Cc4cncc5ccccc45)C3)C2)nc1`, the values for the selectivity ratio in series [1] and in series [6] were 258 and 934, respectively. The values for the pIC50 in series [2] and in series [3] were 8.06 and 7.91, respectively. The figures for the 50% inhibitory concentration (IC50) at 72 h in series [4] and in series [5] were 2.23 µM and 8.06 µM, respectively.

Regarding `O=C(NO)c1cnc(N2CCC3(CN(Cc4ccccn4)C3)C2)nc1`, the selectivity ratio was 188 in series [1] and more than 449 in series [6]. The pIC50 is 7.35 in series [2] and 7.51 in series [3]. In addition, the values for the IC50 at 72 h in series [4] and in series [5] were 8.37 µM and more than 20 µM, respectively.

For `O=C(NO)c1cnc(N2CCC3(CN(Cc4c5ccccc5cc5ccccc45)C3)C2)nc1`, the pIC50 in series [2] is 8.03; in series [3], 8.25. Also, the IC50 at 72 h was 31 µM in series [4] and 0.46 µM in series [5]. For the same compound, in series [6], the selectivity ratio worked out at 49.

Consider `O=C(NO)c1cnc(N2CCC3(CN(Cc4cccs4)C3)C2)nc1`, for which the selectivity ratio in series [1] is 165; in series [6], more than 324. For the same compound, the pIC50 in series [2] was 7.82; in series [3], 7.23. The concentration for half-maximal inhibition (IC50) at 72 h in series [4] is 2.51 µM; in series [5] it was more than 4.93 µM.

Consider `O=C(NO)c1cnc(N2CCC3(CN(Cc4ccc5ncccc5c4)C3)C2)nc1`, for which the values for the selectivity ratio in series [1] and in series [6] were 90 and 102, respectively. Moreover, the pIC50 was 7.77 in series [2] and 7.93 in series [3]. Also, the results for the IC50 at 72 h in series [4] and in series [5] were 1.54 µM and 1.74 µM, respectively.

`O=C(NO)c1cnc(N2CCC3(CN(Cc4cccc5ccccc45)C3)C2)nc1`: the selectivity ratio in series [1] is more than 173; in series [6] it was 605. The values for the pIC50 in series [2] and in series [3] were 8.35 and 8.36, respectively. Also, the IC50 at 72 h is more than 0.77 µM in series [4] and 2.7 µM in series [5].

On to `O=C(NO)c1cnc(N2CCC3(CN(Cc4cc5ccccc5o4)C3)C2)nc1`, for which the selectivity ratio was 543 in series [1] and 785 in series [6]. Moreover, the pIC50 is 8.15 in series [2] and 8.29 in series [3]. Moreover, the IC50 at 72 h in series [4] stood at 3.89 µM; in series [5], 5.62 µM.

Consider `O=C(NO)c1cnc(N2CCC3(CN(Cc4ccco4)C3)C2)nc1`, for which the figures for the selectivity ratio in series [1] and in series [6] were 144 and more than 263, respectively. The pIC50 in series [2] was 7.12; in series [3], 6.93. For the same compound, the IC50 at 72 h in series [4] was found to be 10.9 µM; in series [5], 20 µM.

As for `O=C(NO)c1cnc(N2CCC3(CN(Cc4cccc5ccncc45)C3)C2)nc1`, the selectivity ratio was found to be 300 in series [1] and 152 in series [6]. The pIC50 is 8.21 in series [2] and 8.23 in series [3]. Besides, the 50% inhibitory concentration (IC50) at 72 h was 1.84 µM in series [4] and 0.93 µM in series [5].

As to `Cn1cc(CN2CC3(CCN(c4ncc(C(=O)NO)cn4)C3)C2)c2cccnc21`, the selectivity ratio in series [1] was more than 1170; in series [6] it was 594. The pIC50 is 7.98 in series [2] and 8.11 in series [3]. For the same compound, the concentration for half-maximal inhibition (IC50) at 72 h in series [4] is more than 12.2 µM; in series [5] it was 6.17 µM.

On to `O=C(NO)c1cnc(N2CCC3(CN(Cc4cccnc4)C3)C2)nc1`, for which the selectivity ratio in series [1] was 243; in series [6], more than 426. Also, the pIC50 in series [2] is 7.33; in series [3], 5.65. In addition, the IC50 at 72 h in series [4] was 11.4 µM; in series [5], more than 20 µM.

Regarding `O=C(NO)c1cnc(N2CCC3(CN(Cc4csc5ccccc45)C3)C2)nc1`, the results for the selectivity ratio in series [1] and in series [6] were 49 and 257, respectively. In addition, the values for the pIC50 in series [2] and in series [3] were 8.00 and 8.10, respectively. For the same compound, the IC50 at 72 h came to 0.49 µM in series [4] and 2.58 µM in series [5].

Regarding `Cn1cc(CN2CC3(CCN(c4ncc(C(=O)NO)cn4)C3)C2)c2ccncc21`, the selectivity ratio in series [1] and in series [6] was more than 1370 each time. Moreover, the pIC50 in series [2] is 8.34; in series [3] it was 8.02. The IC50 at 72 h in series [4] and in series [5] was more than 20 µM in each case.

Consider `O=C(NO)c1cnc(N2CCC3(CN(Cc4ccc5ccccc5c4)C3)C2)nc1`, for which the selectivity ratio in series [1] amounted to 215; in series [6], 442. For the same compound, the pIC50 is 8.00 in series [2] and 7.88 in series [3]. In addition, the IC50 at 72 h amounted to 2.13 µM in series [4] and 4.37 µM in series [5].

On to `Cc1ccc2c(CN3CC4(CCN(c5ncc(C(=O)NO)cn5)C4)C3)cn(C)c2c1`, for which the results for the selectivity ratio in series [1] and in series [6] were 112 and 247, respectively. In addition, the values for the pIC50 in series [2] and in series [3] were 8.35 and 8.49, respectively. Further, the half-maximal inhibitory concentration (IC50) at 72 h was 0.5 µM in series [4] and 1.1 µM in series [5].

For `O=C(NO)c1cnc(N2CCC3(CN(Cc4ccsc4)C3)C2)nc1`, the selectivity ratio in series [1] is 394; in series [6], 739. In addition, the pIC50 in series [2] was 8.20; in series [3], 8.41. Further, the values for the IC50 at 72 h in series [4] and in series [5] were 2.46 µM and 4.62 µM, respectively.

In the case of `Cn1cc(CN2CC3(CCN(c4ncc(C(=O)NO)cn4)C3)C2)c2cnccc21`, the selectivity ratio in series [1] and in series [6] was more than 908 in each case. In addition, the negative-log IC50 (pIC50) was 7.66 in series [2] and 7.85 in series [3]. In addition, the concentration for half-maximal inhibition (IC50) at 72 h in series [4] and in series [5] was more than 20 µM each time.

With `O=C(NO)c1cnc(N2CCC3(CN(Cc4cccc5cnccc45)C3)C2)nc1`, the selectivity ratio in series [1] was found to be 133; in series [6], 97. The pIC50 in series [2] is 7.78; in series [3], 7.92. Further, the IC50 at 72 h in series [4] turned out to be 2.21 µM; in series [5], 1.61 µM.

Take `O=C(NO)c1cnc(N2CCC3(CN(Cc4cc5ccccc5s4)C3)C2)nc1`: the selectivity ratio worked out at 625 in series [1] and 794 in series [6]. Further, the values for the pIC50 in series [2] and in series [3] were 8.24 and 8.07, respectively. Also, the IC50 at 72 h in series [4] was determined as 3.61 µM; in series [5], 4.59 µM.

In the case of `O=C(NO)c1cnc(N2CCC3(CN(Cc4ccccc4)C3)C2)nc1`, the selectivity ratio in series [1] came to 16; in series [6], 78. In addition, the pIC50 in series [2] is 7.59; in series [3], 7.17. Moreover, the IC50 at 72 h turned out to be 0.42 µM in series [4] and 1.98 µM in series [5].

Consider `O=C(NO)c1cnc(N2CCC3(CN(Cc4ccc(-c5ccccc5)cc4)C3)C2)nc1`, for which the selectivity ratio in series [1] was 137; in series [6], 174. For the same compound, the negative-log IC50 (pIC50) in series [2] was 7.64; in series [3] it was 7.36. Moreover, the IC50 at 72 h in series [4] worked out at 3.14 µM; in series [5], 3.99 µM.

With `O=C(NO)c1cnc(N2CCC3(CN(CC4CCCCC4)C3)C2)nc1`, the selectivity ratio in series [1] was 46; in series [6], 160. The negative logarithm of the IC50 (pIC50) in series [2] was 7.65; in series [3], 7.72. Also, the IC50 at 72 h in series [4] worked out at 1.03 µM; in series [5], 3.56 µM.

Turning to `O=C(NO)c1cnc(N2CCC3(CN(Cc4cnc5ccccn45)C3)C2)nc1`, the selectivity ratio in series [1] was more than 1640; in series [6], 195. The pIC50 in series [2] is 7.92; in series [3], 8.07. Further, the IC50 at 72 h in series [4] was 20 µM; in series [5], 2.37 µM.

For the compound `Cn1cc(CN2CC3(CCN(c4ncc(C(=O)NO)cn4)C3)C2)c2ccccc21`, the figures for the selectivity ratio in series [1] and in series [6] were 157 and 331, respectively. For the same compound, the pIC50 in series [2] and in series [3] was 8.34 throughout. Further, the IC50 at 72 h in series [4] was 0.72 µM; in series [5], 1.52 µM.

With `O=C(NO)c1cnc(N2CCC3(CN(Cc4cccc5cccnc45)C3)C2)nc1`, the selectivity ratio in series [1] was 202; in series [6], 423. Also, the pIC50 in series [2] was 7.88; in series [3], 7.79. The values for the IC50 at 72 h in series [4] and in series [5] were 2.66 µM and 5.58 µM, respectively.

Turning to `O=C(NO)c1cnc(N2CCC3(CN(Cc4ccoc4)C3)C2)nc1`, the selectivity ratio in series [1] came to 160; in series [6], 431. For the same compound, the pIC50 in series [2] is 7.42; in series [3], 7.40. Moreover, the IC50 at 72 h in series [4] came to 6.03 µM; in series [5] it was 16.2 µM.

Turning to `O=C(NO)c1cnc(N2CCC3(CN(Cc4ccncc4)C3)C2)nc1`, the selectivity ratio in series [1] and in series [6] was more than 146 each time. The results for the pIC50 in series [2] and in series [3] were 6.86 and 5.07, respectively. In addition, the IC50 at 72 h in series [4] was 20 µM; in series [5], more than 20 µM.

Regarding `O=C(NO)c1cnc(N2CCC3(CN(CC4CCCC4)C3)C2)nc1`, the selectivity ratio in series [1] is 64. In addition, the negative-log IC50 (pIC50) in series [3] was 7.72. For the same compound, in series [4], the IC50 at 72 h stood at 1.06 µM.

In the case of `COc1ccc2c(CN3CC4(CCN(c5ncc(C(=O)NO)cn5)C4)C3)cn(C)c2c1`, the selectivity ratio stood at 106 in series [1] and 117 in series [6]. In addition, the pIC50 in series [2] was 8.22; in series [3] it was 8.29. Besides, the IC50 at 72 h in series [4] was 0.63 µM; in series [5], 0.7 µM.
